# Measured values published in PMC10823224, “γδ T cell antigen receptor polyspecificity enables T cell responses to a broad range of immune challenges” (Proceedings of the National Academy of Sciences of the …, 2024).
# Target: T1, human recombinant TG2 (Homo sapiens, UniProt P21980)
# T1 construct: gene TGM2; recombinant, enzymatically active
# T1 sequence (P21980 2-687): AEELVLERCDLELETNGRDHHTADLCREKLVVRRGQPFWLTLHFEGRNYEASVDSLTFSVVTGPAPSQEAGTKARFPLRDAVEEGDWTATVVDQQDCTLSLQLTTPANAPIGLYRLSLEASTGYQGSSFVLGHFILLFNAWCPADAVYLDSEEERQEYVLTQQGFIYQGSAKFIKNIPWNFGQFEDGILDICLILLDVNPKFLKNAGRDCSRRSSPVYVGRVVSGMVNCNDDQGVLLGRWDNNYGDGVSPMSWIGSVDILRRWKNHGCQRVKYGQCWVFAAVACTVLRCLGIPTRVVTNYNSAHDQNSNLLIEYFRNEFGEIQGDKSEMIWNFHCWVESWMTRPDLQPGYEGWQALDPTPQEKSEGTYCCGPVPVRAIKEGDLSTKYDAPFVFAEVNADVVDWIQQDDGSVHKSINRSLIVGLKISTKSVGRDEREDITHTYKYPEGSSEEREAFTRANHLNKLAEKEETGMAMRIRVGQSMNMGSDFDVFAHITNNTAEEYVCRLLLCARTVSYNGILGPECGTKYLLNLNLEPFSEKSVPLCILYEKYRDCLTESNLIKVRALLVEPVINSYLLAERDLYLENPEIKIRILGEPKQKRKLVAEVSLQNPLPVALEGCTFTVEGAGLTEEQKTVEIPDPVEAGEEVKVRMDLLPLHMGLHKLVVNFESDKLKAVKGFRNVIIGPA
# Test: in vitro serotonylation of Rac1 peptide, ESI-MS
# Assay type: biochemical
# Details: 1 mM serotonin, biotinylated Rac1 peptide co-substrate, 10 mM CaCl2, pH 7.4, 37 °C overnight
compound,measurement,value
NCCc1c[nH]c2ccc(O)cc12 [5-HT],"in vitro serotonylation of Rac1 peptide, ESI-MS",the peptide was modified with a single serotonin moiety
